According to US20240075050A1, “Methods and Compositions for Treating Leucine Rich Repeat Kinase 2 (LRRK2)-Associated Disorder or Condition” (University of Connecticut, priority 2022, published 2024):

Key:
GBA mRNA = GBA mRNA levels by real-time PCR in SH-SY5Y cells; format: cell-based, human; conditions: 2 mM, 24 hours
Protocol: Real-Time PCR (qPCR). SH-SY5Y WT or AUF1-KO cells were treated with or without 2 mM AICAr for 24 hours, and total RNA was extracted from 3×10^5 cells of each treatment using TRIzol™ Reagent (Invitrogen) as per the manufacturer's introductions. Real-Time PCR (qPCR) assay was performed using GoTaq® 2-Step RT-PCR System (Promega) as per the manufacturer's introductions. Briefly, total cDNA was reversely transcribed from RNA pools (1.5 μg RNA in a 10 μl reaction mixture) using random primers. The qPCR reaction was run in CFX96 qPCR detection system (Bio-Rad) with 3 μl cDNA (1:20 dilution) in a 10 μl reaction mixture (Table 3), and set at 95° C. for 2 minutes followed by 40 amplification cycles of 95° C. for 15 seconds, 60° C. for 1 min with a melting curve, 95° C. for 15 seconds, 60° C. for 1 min, a ramp from 60° C. to 95° C. at an 1% rate, and 95° C. for 15 seconds. Melt curves were monitored to assess qPCR amplicons, and critical threshold (Ct) values were collected with an enclosed software. Relative gene expression was analyzed by normalization against Ct values of f-ACTIN (housekeeping gene) and then determined by comparison with expression levels of control sample using the relative expression index (2-ΔΔCt) method.

LRRK2 mRNA = LRRK2 mRNA stability assay in the presence of actinomycin D; format: cell-based, human; conditions: SH-SY5Y, 2 mM AICAr, 24-h period, 10 μg/ml actinomycin D
Protocol: FIGS. 3A-3J depict that AICAr regulates LRRK2 at mRNA level and through a specific region. FIGS. 3A and 3B depict the LRRK2 protein levels upon treatment of AICAr together with a proteasome inhibitor MG132 or an autophagy inhibitor chloroquine (CQ). […] LRRK2 expression levels were analyzed by Western blot. Images were quantified by ImageJ software. Data are mean±SEM, n=3 independent experiments. ***p<0.001, ****p<0.0001 by one-way ANOVA followed by a Tukey's post hoc test. FIG. 3C depicts the LRRK2 and GBA mRNA levels upon AICAr treatment. SH-SY5Y cells were treated with or without 2 mM AICAr for 24 hours. Total RNA was extracted. LRRK2 and GBA mRNA levels were analyzed by real-time PCR. Data are mean±SEM, n=4 independent experiments. **p<0.01 by Student's t tests. ns: not statistically significant. […] LRRK2 mRNA levels were analyzed by real-time PCR. […] LRRK2 expression levels were analyzed by Western blot. Images were quantified by ImageJ software. […] LRRK2 deletion mutant expression levels were analyzed by Western blot. FIGS. 3I and 3J depict that the specific region (2221-3927 bp) of the synthesized Flag-LRRK2 cDNA was replaced with the native sequence and the response of this chimeric LRRK2 cDNA expression to AICAr treatment was analyzed by Western blot. Images were quantified by ImageJ software. […]

NC(=O)c1ncn([C@@H]2O[C@H](CO)[C@@H](O)[C@H]2O)c1N [AICAr, 5-aminoimidazole-4-carboxamide riboside]
GBA mRNA levels (GBA mRNA): no changes
acceleration of LRRK2 mRNA decay (LRRK2 mRNA): about twofold
